Experimental data as given in US5183828A, “Polyhydroxybenzoic acid derivatives” (priority 1990, dated 1993).
Values joined by “and” are separate entries in the source; they are usually repeats but may differ in a detail not shown here. Equal values may be shown once. Where a name gives a salt, the structure may show the parent alone.

Experiments:
[1] = system: arachidonic acid induced ear edema; test: arachidonic acid induced ear edema assay, Table 10; format: in vivo, Mice; conditions: Experiment 2, 2 mg total dose, topical
Experimental: The compounds of this invention because of their ability to scavenge free-radicals in vivo are capable of modulating inflammation as set forth in the following protocol: Mice received the test compound topically to each side of the right ear one hr prior to the inflammatory challenge, at which time they were challenged (except for the negative control) with 10 microliter of a 2 mg/20 microliter solution of arachidonic acid applied to each side of the right ear. One hour post-challenge, the animals were sacrificed, the right ears removed, and an 8 mm disc punched from each. These discs were then weighed. The following table gives the results of this experiment.

SRS-A biosynthesis = test: effect of drug on SRS-A biosynthesis; format: in vivo; conditions: 10 mg/kg, i.v.; ovalbumin-sensitized guinea-pigs
Experimental: Compounds according to this invention were also able to affect SRS-A biosynthesis, also in vivo. In this determination, male Hartley guinea-pigs (200-300 g) were sensitized with a single intraperitoneal injection of ovalbumin (10 mg) in 1 ml of 0.9% w/v NaCl solution (saline). The animals were used for study on days 28-45, following the ovalbumin injection. Guinea-pigs this sensitized were anaesthetized with an intraperitoneal injection of urethane (2 g/kg), and the carotid artery and jugular vein cannulated for measurement of arterial blood pressure and to facilitate intravenous drug administration. Animals were ventilated with a Harvard small animal respirator set at a stroke volume of 2.5 cc and a rate of 40 breaths per min. Ventilatory pressure (cmH2 O) was measured with a Statham pressure transducer from a side arm off the tracheal cannula. […]
Plasma SRS-A was determined as follows: Arterial blood was drawn from the carotid artery of the guinea-pigs into sodium citrate (0.38%) containing indomethacin (10^-4 M). […]
SRS-A was bioassayed on the guinea-pig ileum incubated in Tyrode solution containing 10^-6 M atropine sulphate and 10^-6 M pyrilamine maleate and aerated with 95% O2 and 5% CO2. Changes in tension were measured isotonically with an Adaps rotary motion transducer and recorded on a Linear recorder. […]

P388 Leukemia = test: activity vs P388 leukemia (T/C % survival time), Table 6; format: in vivo, mice; conditions: five treatments, >130 significant
Experimental: The following protocol was used:
CDF1 mice were injected ip with 10^6 cells The drug was administered in the first day after tumor inoculation and continued daily for five treatments. The mean survival time of the treated group compared to the non-treated control group equals T/C×100=T/C percent.

Colon 38 = test: activity vs colon 38 (T/C % median tumor weight), Table 5; format: in vivo
Experimental: A compound of this invention was also tested on the solid colon tumor model, colon 38. The tumor was implanted subcutaneously and the drug injected intraperitoneally twice a day on day two (seven hours apart) and twice on day nine. The median tumor weight estimated from tumor diameter is the parameter of tumor inhibition and is measured on day 20. The median tumor weight of treated versus control=T/C percent.

[2] = scavenging of generated tyrosine free radical by pulse radiolysis
Experimental: Additional free radical scavenging potential of a compound of this invention was measured on a generated tyrosine free radical. There is evidence that a tyrosine free radical is formed as part of the mammalian ribonucleotide reductase enzyme during the conversion of ribonucleotides to deoxyribonucleotides--see L. Akerblom, et al. Proc. Natl. Acad. Sci. USA, 78, 2159-2163 (1981). The method for the generation of the tyrosine free radical and its destruction by a compound of this invention was accomplished by pulse radiolysis experiments at Brunel University, […] England on the Brunel 4 MeV linear accelerator using a 1.5 cm optical cell and a 200 ns pulse delivering a dose of approximately 1 krad as measured by thiocyanate dosimetry. All solutions were purged with nitrogen using a syringe-deaerating technique prior to use. The detailed description of the methodology can be found in R. L. Willson, Chemistry and Industry, 183-193 (1977).
For the generation of the tyrosine radical, sodium azide was utilized as an intermediate between the pulse radiolysis generated free electron and tyrosine. […] See also I. K. Larsen et al., Eur. J. Biochem, 125, 75-81 (1982).

L-1210 Leukemia = test: activity vs L-1210 leukemia (T/C % survival time), Table 3; format: in vivo, mice; conditions: >130 significant
Text: 3,4-Dihydroxybenzamidoxime and 3,4,5-trihydroxybenzamidoxime were subjected to a further series of tests against various transplanted tumors in mice according to the following protocols:
For L-1210 lymphoid leukemia, 20 grams CDF1 or BDF1 mice […] ip with 10^5 leukemia cells. The drug was given one day after tumor inoculation continued for an additional eight days. The mean survival time for the treated animal was compared to that of the control group. In the table, column 1 gives the name of the compound, column 2 the dose levels, and column 3 treated over control percent survival time. (In other words, a figure of 175 indicates a 75% increase in survival time.)

| Compound | Percent Inhibition vs. positive control [1] | Mean Increase in Weight of Inflammed Ear (± S.E.) ([1]; positive control 19.0 ± 0.5, p = .000) | % Inhibition of SRS-A Biosynthesis (SRS-A biosynthesis) | T/C % (mean survival time) (P388 Leukemia; 12.5 mg/kg daily) | T/C % (mean survival time) (P388 Leukemia; 25 mg/kg daily) | T/C % (mean survival time) (P388 Leukemia; 50 mg/kg daily) | T/C % (mean survival time) (P388 Leukemia; 100 mg/kg daily, listed as ethyl gallamidate.HCl, hydrochloride) | T/C % (mean survival time) (P388 Leukemia; 200 mg/kg daily, listed as ethyl gallamidate.HCl, hydrochloride) | T/C % (mean survival time) (P388 Leukemia; 400 mg/kg daily, listed as ethyl gallamidate.HCl, hydrochloride) | T/C % (median tumor weight, day 20) (Colon 38; 800 mg/kg ip, twice on day two and twice on day nine) | activity at lower doses (Colon 38; doses lower than 800 mg/kg) | rate constant (tyrosine free radical scavenging) ([2]; pulse radiolysis) | times faster scavenger of tyrosine free radical than hydroxyurea ([2]; vs hydroxyurea) | t/c % (mean survival time) (L-1210 Leukemia; 25 mg/kg) | t/c % (mean survival time) (L-1210 Leukemia; 50 mg/kg) | t/c % (mean survival time) (L-1210 Leukemia; 100 mg/kg) | t/c % (mean survival time) (L-1210 Leukemia; 200 mg/kg) | t/c % (mean survival time) (L-1210 Leukemia; 300 mg/kg) |
| --- | --- | --- | --- | --- | --- | --- | --- | --- | --- | --- | --- | --- | --- | --- | --- | --- | --- | --- |
| CCOC(=N)c1cc(O)c(O)c(O)c1 [ethyl 3,4,5-trihydroxybenzamidate-HCl, Ethyl 3,4,5-trihydroxybenzamidate hydrochloride] | 35% | 12.3 ± 0.4 mg | 29% | 104% | 112% | 114% | 129% and 128% | 139% and 123% | 149% and 160% |  |  |  |  |  |  |  |  |  |
| NC(=NO)c1ccc(O)c(O)c1 [3,4-dihydroxybenzamidoxime.HCl, 3,4-dihydroxybenzamidoximehydrochloride] |  |  | 25% |  |  |  |  |  |  | 87% | ineffective | 4.5×10^8 M^-1 S^-1 | ≥ 100 times | 130% | 137% and 117% and 132% and 146% | 128% and 132% and 141% and 133% | 175% and 128% and 155% and 186% | 113% |
